Test results as given in article PMC4019635 (PLoS ONE, 2014).

Assays:
RDLbd = target: T1, RDLbd (Drosophila melanogaster, UniProt P25123); assay: cell-based
T1 sequence (P25123 45-606): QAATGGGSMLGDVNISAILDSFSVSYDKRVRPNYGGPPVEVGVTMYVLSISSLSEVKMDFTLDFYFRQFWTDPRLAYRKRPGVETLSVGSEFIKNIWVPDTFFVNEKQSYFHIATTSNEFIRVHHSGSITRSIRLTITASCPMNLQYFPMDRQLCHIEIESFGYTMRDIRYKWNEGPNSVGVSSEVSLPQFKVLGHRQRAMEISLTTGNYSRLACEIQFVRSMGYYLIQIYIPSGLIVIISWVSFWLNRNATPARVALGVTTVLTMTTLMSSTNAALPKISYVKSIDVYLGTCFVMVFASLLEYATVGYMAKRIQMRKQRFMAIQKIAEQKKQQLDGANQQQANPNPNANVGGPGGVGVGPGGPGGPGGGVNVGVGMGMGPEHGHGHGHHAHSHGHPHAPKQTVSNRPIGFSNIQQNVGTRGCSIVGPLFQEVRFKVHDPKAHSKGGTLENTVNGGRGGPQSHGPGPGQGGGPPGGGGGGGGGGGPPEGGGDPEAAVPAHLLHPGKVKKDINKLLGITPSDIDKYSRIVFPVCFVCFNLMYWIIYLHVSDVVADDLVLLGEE

RDLbdI/VA^301S = assay: cell-based; design: species or system Drosophila melanogaster; conditions: compared to wild-type / RDLbdI/V
[1] = system: Drosophila carrying the RDLA^301S mutation; design: method as in PMID 11095718; conditions: cited from earlier work
[2] = system: Drosophila carrying the P299S mutation in GluCl; design: method as in PMID 11095718; conditions: cited from earlier work
[3] = system: human glycine α1 receptor A288G; design: method as in PMID 20308070; conditions: A288G mutation; cited from earlier work
RDLbdI/V = RDLbdI/V (Drosophila melanogaster, UniProt P25123, I283V); assay: cell-based; conditions: for concentration at which responses failed to saturate: highest concentration usable, TACA, muscimol, β-alanine insoluble at higher concentrations
RDL A^301S mutation = system: RDL A^301S mutation; design: method as in PMID 2124226; conditions: cited from earlier work

Chain of RDLbdI/V (P25123 45-606 I283V): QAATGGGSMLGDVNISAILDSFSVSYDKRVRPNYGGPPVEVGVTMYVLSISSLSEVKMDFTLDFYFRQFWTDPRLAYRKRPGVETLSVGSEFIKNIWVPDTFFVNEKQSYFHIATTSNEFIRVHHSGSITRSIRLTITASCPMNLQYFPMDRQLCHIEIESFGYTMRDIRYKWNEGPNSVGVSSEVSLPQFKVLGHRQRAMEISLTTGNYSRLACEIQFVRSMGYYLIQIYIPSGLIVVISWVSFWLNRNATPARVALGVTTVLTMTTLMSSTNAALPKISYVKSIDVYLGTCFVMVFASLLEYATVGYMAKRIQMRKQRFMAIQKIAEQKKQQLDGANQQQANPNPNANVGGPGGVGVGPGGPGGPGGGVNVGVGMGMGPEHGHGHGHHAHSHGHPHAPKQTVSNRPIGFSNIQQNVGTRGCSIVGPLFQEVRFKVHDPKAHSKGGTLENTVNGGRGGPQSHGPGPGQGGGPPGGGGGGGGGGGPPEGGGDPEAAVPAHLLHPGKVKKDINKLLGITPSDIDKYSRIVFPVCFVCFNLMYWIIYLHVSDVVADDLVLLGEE

CC[C@H](C)[C@H]1O[C@]2(CC[C@@H]1C)C[C@@H]1C[C@@H](C/C=C(\C)[C@@H](O[C@H]3C[C@H](OC)[C@@H](O[C@H]4C[C@H](OC)[C@@H](O)[C@H](C)O4)[C@H](C)O3)[C@@H](C)/C=C/C=C3\CO[C@@H]4[C@H](O)C(C)=C[C@@H](C(=O)O1)[C@]34O)O2 [IVM, ivermectin]
IC50 (RDLbd): 525 nM | resistance caused by the A^301S mutation (RDLbdI/VA^301S): 2 fold | resistance compared to the wild-type [1]: 3.3 fold | sensitivity change [2]: ten-fold less sensitive | increase in sensitivity [3]: ~100 fold

N#Cc1nn(-c2c(Cl)cc(C(F)(F)F)cc2Cl)c(NCc2cnccn2)c1SCF [Pyrafluprole, pyrafluprole]
IC50 (RDLbd): 631 nM | resistance caused by the A^301S mutation (RDLbdI/VA^301S): 2 fold

NC/C=C/C(=O)O [TACA, trans-4-aminocrotonic acid]
concentration at which responses failed to saturate (RDLbdI/V): 6 mM

ClC1=C(Cl)[C@]2(Cl)[C@@H]3[C@@H]4C[C@@H]([C@H]5O[C@@H]45)[C@@H]3[C@@]1(Cl)C2(Cl)Cl [dieldrin]
resistance (RDL A^301S mutation): > 4000 fold

N#Cc1nn(-c2c(Cl)cc(C(F)(F)F)cc2Cl)c(N)c1[S+]([O-])C(F)(F)F (stereo not drawn) [fipronil]
IC50 (RDLbd): 331 nM | current induced when applied alone (RDLbdI/V; 1 nM−100 µM, no GABA, receptor variant not stated, data not shown): no discernible current | resistance caused by the A^301S mutation (RDLbdI/VA^301S): 3 fold

O=C(O)C1=CCNCC1 [isoguvacine]
concentration at which responses failed to saturate (RDLbdI/V): 3 mM

NCc1cc(=O)[nH]o1 [muscimol]
concentration at which responses failed to saturate (RDLbdI/V): 3 mM

NCCC(=O)O [β-alanine]
concentration at which responses failed to saturate (RDLbdI/V): 10 mM
